Laboratory results published in patent US20230047788A1, “COMPOSITIONS COMPRISING 5-CHOLESTEN-3, 25-DIOL, 3-SULFATE (25HC3S) OR PHARMACEUTICALLY ACCEPTABLE SALT THEREOF AND AT LEAST ONE CYCLIC OLIGOSACCHARIDE” (Virginia Commonwealth University, priority 2016, published 2023).

Experiment: Effect of phosphate and borate buffers on chemical stability (% remaining, impurity profile), osmolality, pH and appearance of 25HC3S 30 mg/mL in 250 mg/mL HPBCD at 80°C and 60°C
Type: physicochemical
Protocol: A total of six 25HC3S formulations at 30 mg/mL in 250 mg/mL of 2-hydroxypropyl beta cyclodextrin (HPBCD) containing 10, 20, 50 and 100 mM phosphate buffers at pH 7.5 to 8.1 and 10 and 50 mM borate buffers at pH 9.4 were prepared for the stability study. The chemical stability (measured as % remaining of 25HC3S) and physical stability (osmolality, pH and appearance) of the formulations were monitored under accelerated conditions for up to 7 days at 80° C. and up to 29 days at 60° C.
Two stock solutions of phosphate buffer at 100 and 200 mM at pH 7.4 and 7.3, respectively and one borate buffer at 100 mM at pH 9.3 were prepared (Tables 22A and 22B) and used for 250 mg/mL HPBCD vehicles preparation (Table 23).
Approximately 1200 mg each of 25HC3S was weighed into 40 mL volumetric flasks and diluted to volume with the six HPBCD vehicles containing 10-100 mM phosphate buffers or 10 and 50 mM borate buffers, respectively (Table 24). The final concentration of 25HC3S was 30 mg/mL (wt/volume, without adjusting for API purity). Aliquots of 2 mL of each formulation were filled into 2 mL glass vials, stoppered and sealed for stability sample set-up at 60° C. and 80° C. to study the effect of phosphate buffer (pH 7.5-8.1) and borate buffer (pH 9.4) at various buffer concentrations on the stability of the HPBCD formulations (Table 26).
A 0.5 mL of sample solution was transferred to a 25 mL volumetric flask and QS'ed with methanol/water=95/5 for 25HC3S concentration determination by HPLC. The % remaining of 25HC3S was calculated as follows: […]

[1] = 60° C., day 0, Phosphate 100 mM
[2] = 60° C., day 29, Phosphate 10 mM
[3] = 60° C., day 29, Phosphate 20 mM
[4] = 60° C., day 29, Phosphate 50 mM
[5] = 60° C., day 29, Phosphate 100 mM

C[C@H](CCCC(C)(C)O)[C@H]1CC[C@H]2[C@@H]3CC=C4C[C@@H](OS(=O)(=O)[O-])CC[C@]4(C)[C@H]3CC[C@]12C.[Na+] [25HC3S, 5-cholesten-3, 25-diol, 3-sulfate]
pH (60° C., day 0, Borate 50 mM): 9.40
25HC3S (60° C., day 0, Phosphate 10 mM): 28.45 mg/mL
% Peak Area 25-Hydroxy Cholesterol at RRT = 3.67 (60° C., day 0, Phosphate 10 mM): 0.0 % Peak Area
% Peak Area 25HC3S (60° C., day 0, Phosphate 10 mM): 99.8 % Peak Area
% Peak Area Major Thermal Degradant at RRT = 2.64 (60° C., day 0, Phosphate 10 mM): 0.3 % Peak Area
% Remaining of 25HC3S (60° C., day 0, Phosphate 10 mM): 100.0%
Osmolality (60° C., day 0, Phosphate 10 mM): 273 mmol/kg
pH (60° C., day 0, Phosphate 10 mM): 8.09
25HC3S (60° C., day 0, Phosphate 20 mM): 28.63 mg/mL
% Peak Area 25-Hydroxy Cholesterol at RRT = 3.67 (60° C., day 0, Phosphate 20 mM): 0.0 % Peak Area
% Peak Area 25HC3S (60° C., day 0, Phosphate 20 mM): 99.7 % Peak Area
% Peak Area Major Thermal Degradant at RRT = 2.64 (60° C., day 0, Phosphate 20 mM): 0.3 % Peak Area
% Remaining of 25HC3S (60° C., day 0, Phosphate 20 mM): 100.0%
Osmolality (60° C., day 0, Phosphate 20 mM): 311 mmol/kg
pH (60° C., day 0, Phosphate 20 mM): 7.81
25HC3S (60° C., day 0, Phosphate 50 mM): 28.50 mg/mL
% Peak Area 25-Hydroxy Cholesterol at RRT = 3.67 (60° C., day 0, Phosphate 50 mM): 0.0 % Peak Area
% Peak Area 25HC3S (60° C., day 0, Phosphate 50 mM): 99.7 % Peak Area
% Peak Area Major Thermal Degradant at RRT = 2.64 (60° C., day 0, Phosphate 50 mM): 0.3 % Peak Area
% Remaining of 25HC3S (60° C., day 0, Phosphate 50 mM): 100.0%
Osmolality (60° C., day 0, Phosphate 50 mM): 415 mmol/kg
pH (60° C., day 0, Phosphate 50 mM): 7.63
25HC3S [1]: 28.58 mg/mL
% Peak Area 25-Hydroxy Cholesterol at RRT = 3.67 [1]: 0.0 % Peak Area
% Peak Area 25HC3S [1]: 99.8 % Peak Area
% Peak Area Major Thermal Degradant at RRT = 2.64 [1]: 0.3 % Peak Area
% Remaining of 25HC3S [1]: 100.0%
Osmolality [1]: 573 mmol/kg
pH [1]: 7.53
25HC3S (60° C., day 29, Borate 10 mM): 26.55 mg/mL
% Peak Area 25-Hydroxy Cholesterol at RRT = 3.67 (60° C., day 29, Borate 10 mM): 1.3 % Peak Area
% Peak Area 25HC3S (60° C., day 29, Borate 10 mM): 98.5 % Peak Area
% Peak Area Major Thermal Degradant at RRT = 2.64 (60° C., day 29, Borate 10 mM): 0.3 % Peak Area
% Remaining of 25HC3S (60° C., day 29, Borate 10 mM): 92.9%
Osmolality (60° C., day 29, Borate 10 mM): 326 mmol/kg
pH (60° C., day 29, Borate 10 mM): 8.90
25HC3S (60° C., day 29, Borate 50 mM): 27.03 mg/mL
% Peak Area 25-Hydroxy Cholesterol at RRT = 3.67 (60° C., day 29, Borate 50 mM): 1.3 % Peak Area
% Peak Area 25HC3S (60° C., day 29, Borate 50 mM): 98.5 % Peak Area
% Peak Area Major Thermal Degradant at RRT = 2.64 (60° C., day 29, Borate 50 mM): 0.3 % Peak Area
% Remaining of 25HC3S (60° C., day 29, Borate 50 mM): 94.8%
Osmolality (60° C., day 29, Borate 50 mM): 541 mmol/kg
pH (60° C., day 29, Borate 50 mM): 9.19
25HC3S [2]: 26.65 mg/mL
% Peak Area 25-Hydroxy Cholesterol at RRT = 3.67 [2]: 1.4 % Peak Area
% Peak Area 25HC3S [2]: 98.3 % Peak Area
% Peak Area Major Thermal Degradant at RRT = 2.64 [2]: 0.3 % Peak Area
% Remaining of 25HC3S [2]: 93.7%
Osmolality [2]: 281 mmol/kg
pH [2]: 7.04
25HC3S [3]: 26.78 mg/mL
% Peak Area 25-Hydroxy Cholesterol at RRT = 3.67 [3]: 1.4 % Peak Area
% Peak Area 25HC3S [3]: 98.3 % Peak Area
% Peak Area Major Thermal Degradant at RRT = 2.64 [3]: 0.3 % Peak Area
% Remaining of 25HC3S [3]: 93.5%
Osmolality [3]: 322 mmol/kg
pH [3]: 7.17
25HC3S [4]: 26.63 mg/mL
% Peak Area 25-Hydroxy Cholesterol at RRT = 3.67 [4]: 1.4 % Peak Area
% Peak Area 25HC3S [4]: 98.3 % Peak Area
% Peak Area Major Thermal Degradant at RRT = 2.64 [4]: 0.3 % Peak Area
% Remaining of 25HC3S [4]: 93.4%
Osmolality [4]: 430 mmol/kg
pH [4]: 7.28
25HC3S [5]: 26.63 mg/mL
% Peak Area 25-Hydroxy Cholesterol at RRT = 3.67 [5]: 1.4 % Peak Area
% Peak Area 25HC3S [5]: 98.4 % Peak Area
% Peak Area Major Thermal Degradant at RRT = 2.64 [5]: 0.3 % Peak Area
% Remaining of 25HC3S [5]: 93.2%
Osmolality [5]: 592 mmol/kg
pH [5]: 7.28
Appearance (60° C., days 0 and 29, Borate 10 and 50 mM, merged cell wrapped over r16-r18: Clear colorless solution): Clear
Appearance (60° C., days 0 and 29, Phosphate 10, 20, 50 and 100 mM, merged cell wrapped over r8-r10: Clear colorless solution): Clear
% Peak Area 25-Hydroxy Cholesterol at RRT = 3.67 (80° C., day 0, Borate 10 mM): 0.0 % Peak Area
% Peak Area 25HC3S (80° C., day 0, Borate 10 mM): 99.7 % Peak Area
% Peak Area Major Thermal Degradant at RRT = 2.64 (80° C., day 0, Borate 10 mM): 0.3 % Peak Area
% Peak Area 25-Hydroxy Cholesterol at RRT = 3.67 (80° C., day 0, Borate 50 mM): 0.0 % Peak Area
% Peak Area 25HC3S (80° C., day 0, Borate 50 mM): 99.9 % Peak Area
% Peak Area Major Thermal Degradant at RRT = 2.64 (80° C., day 0, Borate 50 mM): 0.2 % Peak Area
% Peak Area 25-Hydroxy Cholesterol at RRT = 3.67 (80° C., day 0, Phosphate 10 mM): 0.0 % Peak Area
% Peak Area 25HC3S (80° C., day 0, Phosphate 10 mM): 99.8 % Peak Area
